Here are results for one sequence from patent US20220096614A1, “PEPTIDE-INDUCED NK CELL ACTIVATION” (University of Southampton, priority 2019, published 2022).

This test has as its system KIR2DS2. Description: KIR2DS2 tetramer staining of peptide-loaded 721.174 cells (flow cytometry). It counts as binding. Conditions: 721.174 cells loaded with peptide; KIR2DS2 tetramer conjugated to phycoerythrin; no peptide 10503. An excerpt:
721.174 cells were loaded with peptide and then stained using a tetramer of KIR2DS2 conjugated to phycoerythrin. Shown is a flow cytometry histogram plot of the staining of the 721.174 cells in the presence or absence of peptide. Mean fluorescence intensitites are indicated: 14811 for NAPLVHATL versus 10503 for no peptide.
A general note: Flow cytometry measures light scatter and fluorescence of single cells or particles in a stream.

Chain of KIR2DS2 (P43631 22-245 limits assumed): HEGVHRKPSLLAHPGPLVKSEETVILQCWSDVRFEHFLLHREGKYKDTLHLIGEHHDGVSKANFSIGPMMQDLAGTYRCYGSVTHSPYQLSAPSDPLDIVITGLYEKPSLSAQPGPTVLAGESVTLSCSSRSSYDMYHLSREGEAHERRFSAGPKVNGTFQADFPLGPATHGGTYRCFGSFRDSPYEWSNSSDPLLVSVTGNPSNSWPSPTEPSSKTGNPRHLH
Chain of KIR2DS2 (P10321 25-366, further chain): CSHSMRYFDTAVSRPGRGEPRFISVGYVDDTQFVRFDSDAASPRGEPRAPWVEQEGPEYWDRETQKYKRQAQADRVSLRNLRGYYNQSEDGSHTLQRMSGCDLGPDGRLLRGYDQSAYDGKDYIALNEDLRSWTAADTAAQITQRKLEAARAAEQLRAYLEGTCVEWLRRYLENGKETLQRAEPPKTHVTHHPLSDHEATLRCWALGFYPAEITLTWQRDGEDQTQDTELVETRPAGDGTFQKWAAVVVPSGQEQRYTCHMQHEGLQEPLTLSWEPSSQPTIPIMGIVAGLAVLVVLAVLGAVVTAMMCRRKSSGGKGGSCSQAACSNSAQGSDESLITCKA
Chain of KIR2DS2 (P61769 21-119 partner): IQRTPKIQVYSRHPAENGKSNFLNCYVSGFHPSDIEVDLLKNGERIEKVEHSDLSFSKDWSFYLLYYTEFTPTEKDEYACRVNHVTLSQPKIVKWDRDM

On to “NAPLVHATL [peptide derived from Exportin-1 (XPO1)]”, for which the “Mean fluorescence intensity of KIR2DS2 tetramer staining” value amounted to 14811.
